These are literature values, as cited in paper PMC3131558, “Plitidepsin Has a Safe Cardiac Profile: A Comprehensive Analysis” (Marine Drugs, 2011).

The conditions of the series: possible class effect of HDACI inhibitors; cited from earlier work. The source says:
Plitidepsin has neither shown cardiac toxicity during preclinical/toxicology studies nor has been reported in early phase I clinical trials.

Consider `O=C(/C=C/c1ccc(CN(CCO)CCc2c[nH]c3ccccc23)cc1)NO` [LAQ824], for which the “Electrocardiogram (ECG) abnormalities” value is on record as “reported”. As for `Cc1[nH]c2ccccc2c1CCNCc1ccc(/C=C/C(=O)NO)cc1` [LBH589], the “Electrocardiogram (ECG) abnormalities” value is given as “reported”.
